Results reported in ChEMBL document CHEMBL1201862, “PubChem BioAssay data set” (2004).
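Exposure lasted 48 hours, with cells grown in 96-well plates and compounds tested at five concentrations. Here, GI50 denotes the concentration required for 50% inhibition of growth.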 Calls of active or inactive are those of the source. No stated cut-off is given here; in the data, active = GI50 up to about 1.1 µM and inactive = higher.

Columns and labels:
Assay in all cases: NCI anticancer screen, dose series, 48 h
SNB-19 = tested on: SNB-19
SR = tested on: SR
786-0 = tested on: 786-0
BT-549 = tested on: BT-549
TK-10 = tested on: TK-10
OVCAR-5 = tested on: OVCAR-5
MDA-N = tested on: MDA-N
HOP-92 = tested on: HOP-92
HOP-18 = tested on: HOP-18
SW-620 = tested on: SW-620
DMS-273 = tested on: DMS-273
CAKI-1 = tested on: CAKI-1
KM12 = tested on: KM12
K562 = tested on: K562
NCI-H522 = tested on: NCI-H522
XF498 = tested on: XF498
HOP-62 = tested on: HOP-62
EKVX = tested on: EKVX
RXF 631 = tested on: RXF 631
UACC-62 = tested on: UACC-62
DMS-114 = tested on: DMS-114
MOLT-4 = tested on: MOLT-4
OVCAR-8 = tested on: OVCAR-8
COLO 205 = tested on: COLO 205
MDA-MB-435 = tested on: MDA-MB-435
DU-145 = tested on: DU-145
SK-MEL-5 = tested on: SK-MEL-5
NCI-H23 = tested on: NCI-H23
SF-268 = tested on: SF-268
SNB-75 = tested on: SNB-75
DLD-1 = tested on: DLD-1
SNB-78 = tested on: SNB-78
HT-29 = tested on: HT-29
IGROV-1 = tested on: IGROV-1
M14 = tested on: M14
HL-60 = tested on: HL-60
RPMI-8226 = tested on: RPMI-8226
RXF 393 = tested on: RXF 393
MDA-MB-231 = tested on: MDA-MB-231
ACHN = tested on: ACHN
CCRF-CEM = tested on: CCRF-CEM
SK-MEL-2 = tested on: SK-MEL-2
NCI-H226 = tested on: NCI-H226
LOX IMVI = tested on: LOX IMVI
HCT-116 = tested on: HCT-116
OVCAR-4 = tested on: OVCAR-4
PC-3 = tested on: PC-3
UACC-257 = tested on: UACC-257
A549 = tested on: A549
OVCAR-3 = tested on: OVCAR-3
T47D = tested on: T47D
LXFL 529 = tested on: LXFL 529
NCI/ADR-RES = tested on: NCI/ADR-RES
SK-MEL-28 = tested on: SK-MEL-28
UO-31 = tested on: UO-31
NCI-H460 = tested on: NCI-H460
MCF7 = tested on: MCF7
SF-295 = tested on: SF-295
HCT-15 = tested on: HCT-15
HCC 2998 = tested on: HCC 2998
Malme-3M = tested on: Malme-3M
A498 = tested on: A498
SF-539 = tested on: SF-539
SK-OV-3 = tested on: SK-OV-3
SN12C = tested on: SN12C
Hs-578T = tested on: Hs-578T
U-251 = tested on: U-251
KM-20L2 = tested on: KM-20L2
M19-MEL = tested on: M19-MEL

Structure (SMILES): C[C@]12C=CC(=O)C=C1CC[C@@H]1[C@@H]2CC[C@]2(C)OC(=O)CC[C@@H]12 [TESTOLACTONE]
- GI50 (SNB-19): > 500 µM (inactive)
- GI50 (SR): 318 µM (inactive)
- GI50 (786-0): > 500 µM (inactive)
- GI50 (BT-549): 237 µM (inactive)
- GI50 (TK-10): 499 µM (inactive)
- GI50 (OVCAR-5): > 489 µM (inactive)
- GI50 (MDA-N): > 500 µM (inactive)
- GI50 (HOP-92): 402 µM (inactive)
- GI50 (HOP-18): 98.4 µM (inactive)
- GI50 (SW-620): > 486 µM (inactive)
- GI50 (DMS-273): > 490 µM (inactive)
- GI50 (CAKI-1): 372 µM (inactive)
- GI50 (KM12): > 500 µM (inactive)
- GI50 (K562): 449 µM (inactive)
- GI50 (NCI-H522): 320 µM (inactive)
- GI50 (XF498): 245 µM (inactive)
- GI50 (HOP-62): > 467 µM (inactive)
- GI50 (EKVX): 318 µM (inactive)
- GI50 (RXF 631): > 472 µM (inactive)
- GI50 (UACC-62): 323 µM (inactive)
- GI50 (DMS-114): 376 µM (inactive)
- GI50 (MOLT-4): 375 µM (inactive)
- GI50 (OVCAR-8): > 462 µM (inactive)
- GI50 (COLO 205): 480 µM (inactive)
- GI50 (MDA-MB-435): > 500 µM (inactive)
- GI50 (DU-145): > 343 µM (inactive)
- GI50 (SK-MEL-5): 429 µM (inactive)
- GI50 (NCI-H23): > 491 µM (inactive)
- GI50 (SF-268): > 489 µM (inactive)
- GI50 (SNB-75): 292 µM (inactive)
- GI50 (DLD-1): > 500 µM (inactive)
- GI50 (SNB-78): 460 µM (inactive)
- GI50 (HT-29): > 493 µM (inactive)
- GI50 (IGROV-1): 453 µM (inactive)
- GI50 (M14): > 500 µM (inactive)
- GI50 (HL-60): 310 µM (inactive)
- GI50 (RPMI-8226): 450 µM (inactive)
- GI50 (RXF 393): 437 µM (inactive)
- GI50 (MDA-MB-231): 327 µM (inactive)
- GI50 (ACHN): 453 µM (inactive)
- GI50 (CCRF-CEM): 431 µM (inactive)
- GI50 (SK-MEL-2): > 478 µM (inactive)
- GI50 (NCI-H226): 417 µM (inactive)
- GI50 (LOX IMVI): > 492 µM (inactive)
- GI50 (HCT-116): > 466 µM (inactive)
- GI50 (OVCAR-4): 486 µM (inactive)
- GI50 (PC-3): > 500 µM (inactive)
- GI50 (UACC-257): 389 µM (inactive)
- GI50 (A549): 447 µM (inactive)
- GI50 (OVCAR-3): 479 µM (inactive)
- GI50 (T47D): > 337 µM (inactive)
- GI50 (LXFL 529): > 500 µM (inactive)
- GI50 (NCI/ADR-RES): > 492 µM (inactive)
- GI50 (SK-MEL-28): 498 µM (inactive)
- GI50 (UO-31): 444 µM (inactive)
- GI50 (NCI-H460): 484 µM (inactive)
- GI50 (MCF7): 457 µM (inactive)
- GI50 (SF-295): > 500 µM (inactive)
- GI50 (HCT-15): > 488 µM
- GI50 (HCC 2998): 372 µM (inactive)
- GI50 (Malme-3M): 480 µM (inactive)
- GI50 (A498): 347 µM (inactive)
- GI50 (SF-539): 454 µM (inactive)
- GI50 (SK-OV-3): > 479 µM (inactive)
- GI50 (SN12C): 495 µM (inactive)
- GI50 (Hs-578T): 319 µM (inactive)
- GI50 (U-251): > 500 µM (inactive)
- GI50 (KM-20L2): 456 µM (inactive)

Structure (SMILES): Cc1cc2c(c(C#N)c1C)NC(=O)CCC2=O
- GI50 (SR): > 100 µM (inactive)
- GI50 (786-0): > 100 µM (inactive)
- GI50 (SW-620): > 100 µM (inactive)
- GI50 (DMS-273): > 100 µM (inactive)
- GI50 (CAKI-1): > 100 µM (inactive)
- GI50 (KM12): > 100 µM (inactive)
- GI50 (K562): > 100 µM (inactive)
- GI50 (XF498): > 100 µM (inactive)
- GI50 (HOP-62): > 100 µM (inactive)
- GI50 (EKVX): > 100 µM (inactive)
- GI50 (RXF 631): > 100 µM (inactive)
- GI50 (UACC-62): > 100 µM (inactive)
- GI50 (DMS-114): > 100 µM (inactive)
- GI50 (MOLT-4): > 100 µM (inactive)
- GI50 (OVCAR-8): > 100 µM (inactive)
- GI50 (COLO 205): > 100 µM (inactive)
- GI50 (NCI-H23): > 100 µM (inactive)
- GI50 (SNB-75): > 100 µM (inactive)
- GI50 (DLD-1): > 100 µM (inactive)
- GI50 (SNB-78): > 100 µM (inactive)
- GI50 (HT-29): > 100 µM (inactive)
- GI50 (IGROV-1): > 100 µM (inactive)
- GI50 (M14): > 100 µM (inactive)
- GI50 (HL-60): > 100 µM (inactive)
- GI50 (RPMI-8226): > 100 µM (inactive)
- GI50 (RXF 393): 64 µM (inactive)
- GI50 (ACHN): > 100 µM (inactive)
- GI50 (CCRF-CEM): > 100 µM (inactive)
- GI50 (SK-MEL-2): > 100 µM (inactive)
- GI50 (HCT-116): > 100 µM (inactive)
- GI50 (OVCAR-4): > 100 µM (inactive)
- GI50 (UACC-257): > 100 µM (inactive)
- GI50 (A549): > 100 µM (inactive)
- GI50 (OVCAR-3): > 100 µM (inactive)
- GI50 (LXFL 529): > 100 µM (inactive)
- GI50 (SK-MEL-28): > 100 µM (inactive)
- GI50 (M19-MEL): > 100 µM (inactive)
- GI50 (UO-31): 16.5 µM (inactive)
- GI50 (NCI-H460): > 100 µM (inactive)
- GI50 (SF-295): > 100 µM (inactive)
- GI50 (HCT-15): > 100 µM
- GI50 (HCC 2998): > 100 µM (inactive)
- GI50 (A498): > 100 µM (inactive)
- GI50 (SF-539): > 100 µM (inactive)
- GI50 (SN12C): > 100 µM (inactive)
- GI50 (U-251): > 100 µM (inactive)
- GI50 (KM-20L2): > 100 µM (inactive)

Structure (SMILES): O=Cc1cc2sc(C=O)cc2s1
- GI50 (SNB-19): > 100 µM (inactive)
- GI50 (SR): > 100 µM (inactive)
- GI50 (786-0): > 100 µM (inactive)
- GI50 (TK-10): > 100 µM (inactive)
- GI50 (OVCAR-5): > 100 µM (inactive)
- GI50 (HOP-92): > 100 µM (inactive)
- GI50 (SW-620): > 100 µM (inactive)
- GI50 (DMS-273): > 100 µM (inactive)
- GI50 (CAKI-1): 45.3 µM (inactive)
- GI50 (KM12): > 100 µM (inactive)
- GI50 (K562): > 100 µM (inactive)
- GI50 (NCI-H522): 93.3 µM (inactive)
- GI50 (XF498): > 100 µM (inactive)
- GI50 (HOP-62): > 100 µM (inactive)
- GI50 (EKVX): > 100 µM (inactive)
- GI50 (RXF 631): > 100 µM (inactive)
- GI50 (UACC-62): 40.6 µM (inactive)
- GI50 (DMS-114): > 100 µM (inactive)
- GI50 (MOLT-4): > 100 µM (inactive)
- GI50 (OVCAR-8): > 100 µM (inactive)
- GI50 (COLO 205): > 100 µM (inactive)
- GI50 (SK-MEL-5): > 100 µM (inactive)
- GI50 (NCI-H23): > 100 µM (inactive)
- GI50 (SF-268): > 100 µM (inactive)
- GI50 (SNB-75): > 100 µM (inactive)
- GI50 (DLD-1): > 100 µM (inactive)
- GI50 (SNB-78): > 100 µM (inactive)
- GI50 (HT-29): > 100 µM (inactive)
- GI50 (IGROV-1): > 100 µM (inactive)
- GI50 (M14): > 100 µM (inactive)
- GI50 (HL-60): > 100 µM (inactive)
- GI50 (RPMI-8226): > 100 µM (inactive)
- GI50 (RXF 393): > 100 µM (inactive)
- GI50 (CCRF-CEM): > 100 µM (inactive)
- GI50 (NCI-H226): 26.1 µM (inactive)
- GI50 (LOX IMVI): > 100 µM (inactive)
- GI50 (HCT-116): > 100 µM (inactive)
- GI50 (OVCAR-4): > 100 µM (inactive)
- GI50 (UACC-257): > 100 µM (inactive)
- GI50 (A549): > 100 µM (inactive)
- GI50 (OVCAR-3): > 100 µM (inactive)
- GI50 (LXFL 529): > 100 µM (inactive)
- GI50 (M19-MEL): > 100 µM (inactive)
- GI50 (UO-31): > 100 µM (inactive)
- GI50 (NCI-H460): > 100 µM (inactive)
- GI50 (SF-295): > 100 µM (inactive)
- GI50 (HCT-15): > 100 µM
- GI50 (HCC 2998): > 100 µM (inactive)
- GI50 (Malme-3M): > 100 µM (inactive)
- GI50 (A498): 17.7 µM (inactive)
- GI50 (SF-539): > 100 µM (inactive)
- GI50 (SK-OV-3): > 100 µM (inactive)
- GI50 (SN12C): > 100 µM (inactive)
- GI50 (U-251): > 100 µM (inactive)
- GI50 (KM-20L2): > 100 µM (inactive)
